Laboratory results as given in patent publication US20240327417A1, “HETEROCYCLIC COMPOUNDS” (BeiGene Switzerland GmbH, priority 2021, published 2024).

Columns and labels:
[1] = molecular target: T1, Full length DGKα (D21-10BG, SignalChem) (Homo sapiens, UniProt P23743); experiment: Biochemical DGK IC50 assay (ADP-Glo, lipid micelle substrate), DGKα; settings: 7.5 nM enzyme, 140 μM ATP, 80 μM DAG, 1 hour preincubation, 1 hour reaction, room temperature, read-out: IC50s for DGKα
T1 construct: Full length DGKα (D21-10BG, SignalChem); purchased SignalChem D21-10BG
Summary of the method: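 Full-length enzyme was assayed by ADP-Glo on DAG/PS lipid micelles at room temperature in HEPES/MgCl2/CaCl2 buffer with BSA, Na3VO4 and Tween-20, using a 1 h reaction and luminescence read-out.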

[2] = molecular target: T2, Full length DGKζ (in-house protein M1-V929) (Homo sapiens, UniProt Q13574); experiment: Biochemical DGK IC50 assay (ADP-Glo, lipid micelle substrate), DGKζ; settings: 0.5 nM enzyme, 140 μM ATP, 80 μM DAG, 1 hour preincubation, 1 hour reaction, room temperature, read-out: IC50s for DGKζ
T2 construct: His (N); TEV cleavage site (N); made in house; host or cells: Sf9 insect cells (baculovirus, Bac-to-Bac)
Summary of the method: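 In-house full-length human DGKζ, baculovirus-expressed in Sf9 cells, was assayed with a DAG/PS lipid micelle substrate at room temperature. Buffer was 50 mM HEPES, 10 mM MgCl2, 0.01% BSA, 0.1 mM Na3VO4, 0.005% Tween-20, 0.01 mM CaCl2, with final compound 1.55˜10000 nM or 23.3˜150000 nM.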

T1 sequence (P23743 whole entry): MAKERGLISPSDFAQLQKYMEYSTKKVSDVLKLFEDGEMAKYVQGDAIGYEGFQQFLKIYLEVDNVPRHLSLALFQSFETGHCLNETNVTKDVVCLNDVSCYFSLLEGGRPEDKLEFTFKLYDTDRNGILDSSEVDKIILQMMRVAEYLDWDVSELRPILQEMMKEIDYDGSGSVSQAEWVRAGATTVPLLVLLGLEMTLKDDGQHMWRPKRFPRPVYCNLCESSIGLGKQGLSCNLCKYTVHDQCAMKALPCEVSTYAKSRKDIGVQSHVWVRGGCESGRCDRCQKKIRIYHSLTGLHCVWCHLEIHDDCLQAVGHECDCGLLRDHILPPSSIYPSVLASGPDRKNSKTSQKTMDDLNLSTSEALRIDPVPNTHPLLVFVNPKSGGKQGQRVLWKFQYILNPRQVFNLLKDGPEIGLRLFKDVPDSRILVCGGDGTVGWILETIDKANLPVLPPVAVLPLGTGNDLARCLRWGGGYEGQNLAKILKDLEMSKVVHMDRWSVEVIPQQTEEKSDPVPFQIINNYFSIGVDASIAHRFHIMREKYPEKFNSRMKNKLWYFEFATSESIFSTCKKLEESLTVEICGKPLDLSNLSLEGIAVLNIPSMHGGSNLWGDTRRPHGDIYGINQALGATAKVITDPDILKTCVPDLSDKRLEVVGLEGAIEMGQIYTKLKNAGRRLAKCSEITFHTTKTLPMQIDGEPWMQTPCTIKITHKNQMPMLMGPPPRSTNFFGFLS
T2 sequence (Q13574 1-929 isoform Q13574-4): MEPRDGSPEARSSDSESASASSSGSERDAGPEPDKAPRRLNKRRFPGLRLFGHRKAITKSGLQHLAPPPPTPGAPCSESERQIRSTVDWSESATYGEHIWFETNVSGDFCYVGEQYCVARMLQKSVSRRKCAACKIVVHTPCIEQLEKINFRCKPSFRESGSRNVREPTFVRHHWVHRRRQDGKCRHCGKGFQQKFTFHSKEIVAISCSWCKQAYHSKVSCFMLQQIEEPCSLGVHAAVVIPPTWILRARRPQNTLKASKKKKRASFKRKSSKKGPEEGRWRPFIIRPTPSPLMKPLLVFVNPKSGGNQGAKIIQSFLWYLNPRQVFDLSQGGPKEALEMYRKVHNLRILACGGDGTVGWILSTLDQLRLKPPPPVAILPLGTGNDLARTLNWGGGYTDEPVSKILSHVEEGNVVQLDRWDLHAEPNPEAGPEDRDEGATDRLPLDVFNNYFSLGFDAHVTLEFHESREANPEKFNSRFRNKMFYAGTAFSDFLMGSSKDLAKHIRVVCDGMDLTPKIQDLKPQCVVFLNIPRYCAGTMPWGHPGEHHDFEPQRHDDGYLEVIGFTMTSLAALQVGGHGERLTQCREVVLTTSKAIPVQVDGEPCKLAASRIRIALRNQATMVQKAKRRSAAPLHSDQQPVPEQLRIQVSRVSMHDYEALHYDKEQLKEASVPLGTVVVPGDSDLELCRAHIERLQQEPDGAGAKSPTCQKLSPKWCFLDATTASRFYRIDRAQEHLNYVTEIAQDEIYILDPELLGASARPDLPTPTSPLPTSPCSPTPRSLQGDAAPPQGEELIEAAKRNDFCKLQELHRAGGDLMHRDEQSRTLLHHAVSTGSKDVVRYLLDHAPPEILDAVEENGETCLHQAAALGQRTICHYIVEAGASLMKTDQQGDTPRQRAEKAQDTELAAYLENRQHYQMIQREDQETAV

Row | IC50 [1] [nM] | IC50 [2] [nM] | SMILES
1 | 78 | 8100 | CC[C@H]1CN(C(C)c2ccc3nc(C)sc3n2)[C@H](CC)CN1c1cc(=O)n(C)n2cc(C=NOC)nc12 (single isomer, unassigned) [Compound A124bc]
2 | 2300 | 9000 | CC(c1ccc2nccnc2c1)N1C[C@H](C)N(c2cc(=O)n(C)n3cc(CO)nc23)C[C@H]1C (stereo partly drawn) [Compound A3, 8-((2S,5R)-2,5-dimethyl-4-(1-(quinoxalin-6-yl)ethyl)piperazin-1-yl)-2-(hydroxymethyl)-5-methylimidazo[1,2-b]pyridazin-6(5H)-one]
3 | 5.9 | 630 | CC[C@H]1CN(C(C)c2ccc3nc(C)sc3n2)[C@H](CC)CN1c1cc(=O)n(C)n2cc(C=NOC)nc12 (single isomer, unassigned) [Compound A124d]
4 | 683 | 6 | CC[C@@H]1CN(c2cc(=O)n(C)n3cc(CC#N)nc23)[C@@H](C)CN1C(C)c1ccc2nc(C)sc2c1F (single isomer, unassigned) [Compound A63a]
5 | 4180 | 3610 | CC[C@@H]1CN(c2cc(=O)n(C)n3cc(CC#N)nc23)[C@@H](C)CN1C(C)c1ccc2nccnc2c1 (single isomer, unassigned) [Compound A13b]
6 | 1490 | 1800 | CC[C@H]1CN(C(C)c2ccc3nc(C4CC4)sc3n2)[C@H](CC)CN1c1cc(=O)n(C)n2cc(CC#N)nc12 (single isomer, unassigned) [Compound A109a]
7 | 3790 | 1150 | [2H]C([2H])([2H])n1c(=O)cc(N2C[C@@H](CC)N(C(C)c3ccc4nc(C)sc4c3)C[C@@H]2CC)c2nc(CC#N)cn21 (single isomer, unassigned) [Compound A94b]
8 | 121 | 25 | CC[C@H]1CN(C(C)c2ccc(C(C)(F)F)nc2)[C@H](CC)CN1c1cc(=O)n(C)n2cc(CC#N)nc12 (single isomer, unassigned) [Compound A90a]
9 | 2280 | 39 | Cc1cnc2ccc(C(C)N3C[C@H](C)N(c4c(C#N)c(=O)n(C)n5cc(CC#N)nc45)C[C@H]3C)cc2n1 (stereo partly drawn) [Compound A23, 2-(cyanomethyl)-8-((2S,5R)-2,5-dimethyl-4-(1-(3-methylquinoxalin-6-yl)ethyl)piperazin-1-yl)-5-methyl-6-oxo-5,6-dihydroimidazo[1,2-b]pyridazine-7-carbonitrile]
10 | 378 | 46 | CC[C@H]1CN(C(CCOC)c2ccc3nc(C)sc3c2)[C@H](CC)CN1c1cc(=O)n(C)n2cc(CC#N)nc12 (single isomer, unassigned) [Compound A102a]
11 | 44 | 20 | CC[C@H]1CN(C(C)c2ccc(C3CC3)nc2)[C@H](CC)CN1c1cc(=O)n(C)n2cc(CC#N)nc12 (single isomer, unassigned) [Compound A37a]
12 | 171 | 73 | CCC(c1ccc(C2CC2)nc1)N1C[C@H](CC)N(c2cc(=O)n(C)n3cc(CC#N)nc23)C[C@H]1CC (single isomer, unassigned) [Compound A89a]
13 | 1020 | 18 | COc1cnc2ccc(C(C)N3C[C@H](C)N(c4cc(=O)n(C)n5cc(CC#N)nc45)C[C@H]3C)cc2n1 (stereo partly drawn) [Compound A20, 2-(8-((2S,5R)-4-(1-(3-methoxyquinoxalin-6-yl)ethyl)-2,5-dimethylpiperazin-1-yl)-5-methyl-6-oxo-5,6-dihydroimidazo[1,2-b]pyridazin-2-yl)acetonitrile]
14 | 14 | 241 | CC[C@@H]1CN(c2cc(=O)n(C)n3cc(CC#N)nc23)[C@@H](CC)CN1Cc1ccc(OC(F)(F)F)cc1 [Compound A36, 2-(8-((2S,5R)-2,5-diethyl-4-(4-(trifluoromethoxy)benzyl)piperazin-1-yl)-5-methyl-6-oxo-5,6-dihydroimidazo[1,2-b]pyridazin-2-yl)acetonitrile]
15 | 527 | > 10000 | CC#CCc1cn2c(n1)c(N1C[C@@H](CC)N(C(C)c3ccc4nc(C)sc4c3)C[C@@H]1CC)cc(=O)n2C (single isomer, unassigned) [Compound A68b]
16 | 157 | 158 | CC[C@H]1CN(C(C)c2ccc3scnc3c2)[C@H](CC)CN1c1cc(=O)n(C)n2cc(CC#N)nc12 (single isomer, unassigned) [Compound A65b]
17 | 386 | 802 | CC[C@H]1CN(C(C)c2ccc(C(C)(F)F)nc2)[C@H](CC)CN1c1cc(=O)n(C)n2cc(CC#N)nc12 (single isomer, unassigned) [Compound A90b]
18 | 87 | 52 | CC[C@H]1CN(C(C)c2ccc(C(F)(F)F)cc2F)[C@H](CC)CN1c1cc(=O)n(C)n2cc(CC#N)nc12 (single isomer, unassigned) [Compound A92a]
